# Results from PubChem BioAssay (NCI).
# Values joined by “and” are separate entries in the source; they are usually repeats but may differ in a detail not shown here. Identical values can stand only once.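 Cells were grown in 96-well plates and exposed to each compound for 48 hours at five concentrations; endpoints were interpolated linearly between bracketing concentrations, or set to the highest concentration if not reached. The concentration for 50% growth inhibition is given as GI50. The concentration for full growth arrest is given as TGI.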
# Key:
# Test in all cases: growth of human tumour cells (NCI), 48 h
# U251 CNS = test system: U251 CNS
# NCI/ADR-RES ovarian = test system: NCI/ADR-RES ovarian
# HL-60(TB) leukemia = test system: HL-60(TB) leukemia
# HOP-62 NSCLC = test system: HOP-62 NSCLC
# 786-0 renal = test system: 786-0 renal
# CCRF-CEM leukemia = test system: CCRF-CEM leukemia
# RXF 393 renal = test system: RXF 393 renal
SMILES,GI50 (U251 CNS),TGI (U251 CNS),TGI (NCI/ADR-RES ovarian),GI50 (HL-60(TB) leukemia),TGI (HL-60(TB) leukemia),GI50 (HOP-62 NSCLC),TGI (HOP-62 NSCLC),GI50 (786-0 renal),TGI (786-0 renal),GI50 (CCRF-CEM leukemia),TGI (CCRF-CEM leukemia),GI50 (RXF 393 renal),TGI (RXF 393 renal),GI50 (NCI/ADR-RES ovarian)
O=C1NC(c2cccc3ccccc23)Nc2ccccc21 (stereo not drawn),0.0259 µM,0.3 µM and 0.83 µM,0.0707 µM and 0.0715 µM,0.00675 µM,0.0391 µM and 0.0342 µM,0.0317 µM,29.6 µM,0.0254 µM,> 100 µM,0.0296 µM,0.538 µM,,,
O=C(Nc1cccc(-n2ccc3c(NC(=O)c4ccccc4)nccc32)c1)c1ccc(Cl)c(Cl)c1,0.0875 µM,1.6 µM,0.38 µM,0.188 µM,0.977 µM,0.24 µM,1.87 µM,0.242 µM,1.59 µM,,,0.106 µM,0.639 µM,0.0865 µM
Cc1ccc2c(c1)C(=O)/C(=C/c1cccc(OCC(=O)c3ccc(Cl)cc3)c1)CS2,3.14 µM,13.6 µM,9.02 µM,2.95 µM,13.4 µM,13 µM,30.6 µM,11.3 µM,24.6 µM,2.38 µM,6.83 µM,16.8 µM,34.8 µM,2.68 µM
CCN(CC)CCNc1ccc(N=Nc2cnc3ccccc3c2)c2ccccc12,1.7 µM,3.2 µM,5.15 µM,1.34 µM,2.92 µM,1.66 µM,3.02 µM,1.93 µM,3.35 µM,0.223 µM,1.09 µM,1.88 µM,4.05 µM,2.29 µM
O=C(O)C1C2C=CC(O2)C1C(=O)NCc1ccncc1 (stereo not drawn),,> 100 µM,,,> 100 µM,,> 100 µM,,> 100 µM,,> 100 µM,,> 100 µM,
Cc1nccc2c3ccc(OCc4cn(-c5ccc(Br)cc5)nn4)cc3n(CCCc3ccccc3)c12,1.92 µM,3.79 µM,4.61 µM,6.53 µM,> 100 µM,3.16 µM,29.6 µM,1.49 µM,3.13 µM,2.97 µM,> 100 µM,,,1.79 µM
CC[C@H](C)C(=O)O[C@H]1CCC=C2C=C[C@H](C)[C@H](CC[C@@H]3C[C@@H](O)CC(=O)O3)[C@H]21,1.13 µM,> 100 µM,> 100 µM,17.1 µM,76.5 µM,12.4 µM,> 100 µM,8.95 µM,> 74.5 µM,34.1 µM,> 100 µM,3.32 µM,16.6 µM,3.34 µM
Cc1cc2oc(=O)cc(OC/C=C3/CCC(=O)O3)c2cc1C,3.42 µM,15.1 µM,23.2 µM,,,12.1 µM,26.4 µM,2.57 µM,10.4 µM,2.33 µM,7.25 µM,1.83 µM,9.81 µM,5.09 µM
CC(C)c1ccc(C(O)(C(=O)O)c2ccc(C(C)C)cc2)cc1,,42.9 µM,> 100 µM,,99.4 µM,,> 100 µM,,> 100 µM,,> 100 µM,,> 100 µM,
C=C1C(=O)O[C@H]2[C@H]1CC/C(CNC(=O)C(C)c1ccc(CC(C)C)cc1)=C\CC[C@@]1(C)O[C@@H]21 (stereo partly drawn),1.67 µM,3.1 µM,5.47 µM,,,3.07 µM,12.2 µM,1.76 µM,3.36 µM,0.551 µM,7.49 µM,1.31 µM,2.61 µM,2.07 µM
CCOC(=O)Nc1cc2c(c(N)n1)N=C(c1ccccc1)CN2,,1.42 µM,,,,,18.5 µM,< 0.0001 µM,25.9 µM,< 0.0001 µM,,,29.2 µM,
N#Cc1ccc(C(=O)c2cnn(-c3ccc(F)cc3)c2N)cc1,> 23.1 µM,> 25 µM,> 25 µM,> 25 µM,> 25 µM,> 25 µM,> 25 µM,> 25 µM,> 25 µM,> 25 µM,> 25 µM,> 25 µM,> 25 µM,> 25 µM
CC(=O)OCC1OC([S-])C(OC(C)=O)C(OC(C)=O)C1OC(C)=O.[Au+].c1ccc(CN2[CH-]N(Cc3ccccc3)C(c3ccccc3)=C2c2ccccc2)cc1,1.74 µM and 0.251 µM,3.2 µM and 0.942 µM,21.8 µM and 9.04 µM,2.57 µM and 0.573 µM,7.57 µM and 2.35 µM,4.56 µM and 1.11 µM,19.4 µM and 4.59 µM,1.84 µM and 0.384 µM,3.63 µM and 1.18 µM,2.65 µM and 0.283 µM,13.8 µM and 9.52 µM,1.71 µM and 0.527 µM,3.19 µM and 1.26 µM,6.35 µM and 1.68 µM
Cc1c(C(=O)/C=C/c2ccc(Cl)cc2)nnn1-c1ccnc2c(C(F)(F)F)cccc12,12.9 µM,47.8 µM,> 100 µM,25.9 µM,> 100 µM,22 µM,47.8 µM,45.6 µM,> 100 µM,15.3 µM,> 100 µM,1.05 µM,34.1 µM,48.4 µM
CCCCNP1(NCCCC)=NP(NCCCC)(NCCCC)=NP(NCCCC)(NCCCC)=NP(NCCCC)(NCCCC)=N1,0.296 µM,3.81 µM,> 100 µM,0.098 µM,0.888 µM,1.85 µM,6.25 µM,1.34 µM,5.26 µM,0.313 µM,12.3 µM,1.97 µM,10.2 µM,73.3 µM
CCc1nc(N)nc(N)c1-c1ccc(N(C)Cc2ccccc2)c([N+](=O)[O-])c1,,24.5 µM,21.4 µM,,5.88 µM,,14.3 µM,,30.3 µM,,12.7 µM,,22.9 µM,
O=c1oc2ccc(I)cc2c(=O)n1-c1ccc(I)cc1F,0.612 µM,> 45.3 µM,5.69 µM,0.564 µM,,2.36 µM,9.46 µM,2.21 µM,6.49 µM,1.89 µM,10.8 µM,0.861 µM,4.16 µM,0.568 µM
COc1cc2c(cc1OC)-c1c(c3ccc([N+](=O)[O-])cc3c(=O)n1CCCN=[N+]=[N-])C2=O,11.6 µM,> 100 µM,> 100 µM,73 µM,> 100 µM,29.8 µM,> 100 µM,50.4 µM,> 100 µM,,,> 100 µM,> 100 µM,31.7 µM
